The values below come from publication PMC11855827, “High-Throughput Screening of Five Compound Libraries for Anthelmintic Activity and Toxicity Leads to the Discovery of Two Flavonoid Compounds” (International Journal of Molecular Sciences, 2025).

Where “and” joins values, the source holds several entries; their conditions need not be identical. Equal entries are not always repeated.

The assay concerns C. elegans. The conditions noted are these: Table S2, C. elegans SS assay, 110 μM, averages of 4 data points.

`C[C@@H]1CC[C@]2(C(=O)O)CC[C@]3(C)C(=CC[C@@H]4[C@@]5(C)CC[C@H](O[C@@H]6OC[C@H](O)[C@H](O)[C@H]6O)C(C)(C)[C@@H]5CC[C@]43C)[C@@H]2[C@]1(C)O` [Ziyuglycoside II]: the “Percentage of motility inhibition 0 h” value was found to be 11% and the “Percentage of motility inhibition 24 h” value is listed as 14%.
The matching figures for `COC(=O)N[C@H](C(=O)N[C@@H](Cc1ccccc1)[C@@H](O)CN(Cc1ccc(-c2ccccn2)cc1)NC(=O)[C@@H](NC(=O)OC)C(C)(C)C)C(C)(C)C.O=S(=O)(O)O` [Atazanavir (sulfate)]: 3% and 4%.
The corresponding values for `CC1(C)CC[C@]2(C(=O)O)CC[C@]3(C)C(=CC[C@@H]4[C@@]5(C)CC[C@H](O[C@@H]6O[C@H](C(=O)O)[C@@H](O)[C@H](O)[C@H]6O)C(C)(C)[C@@H]5CC[C@]43C)[C@@H]2C1` [Calenduloside E] are 0% and 0%.
In the case of `COc1ccc(-c2oc3cc(OC)c(OC)c(O)c3c(=O)c2OC)cc1OC` [Artemitin], the “Percentage of motility inhibition 0 h” value was found to be 0% and the “Percentage of motility inhibition 24 h” value was 20%.
The corresponding values for Ginkgolide C are 12% and 0%.
The corresponding values for `C[C@@H]1CC[C@@H]2C(C(=O)O)=CO[C@@H](O[C@@H]3O[C@H](CO)[C@@H](O)[C@H](O)[C@H]3O)[C@H]12` [8-Epideoxyloganic acid] are 2% and 17%.
Regarding `COc1ccc([C@@H]2CC(=O)c3c(O)cc(O)cc3O2)cc1O` (racemic) [(Rac)‐Hesperetin], the “Percentage of motility inhibition 0 h” value came out at 0% and the “Percentage of motility inhibition 24 h” value is on record as 0%.
As to Mogroside IIA1, the “Percentage of motility inhibition 0 h” value is 6% and the “Percentage of motility inhibition 24 h” value is recorded as 47%.
The corresponding values for `O=c1cc(-c2ccc(O)cc2)oc2c([C@@H]3O[C@H](CO)[C@@H](O)[C@H](O)[C@H]3O)c(O)c([C@@H]3OC[C@H](O)[C@H](O)[C@H]3O)c(O)c12` [Isoschaftoside] are 9% and 0%.
The corresponding values for `CN1[C@H]2C[C@H](OC(=O)[C@H](CO)c3ccccc3)C[C@@H]1[C@@H](O)C2` [Anisodamine] are 10% and 5%.
For `C1CNCCN1.O=C(O)CCCCC(=O)O` [Piperazine adipate], the “Percentage of motility inhibition 0 h” value stood at 10% and the “Percentage of motility inhibition 24 h” value is 13%.
The corresponding values for `CC=C1[C@H](O[C@@H]2O[C@H](CO)[C@@H](O)[C@H](O)[C@H]2O)OC=C(C(=O)OC)[C@H]1CC(=O)OC[C@H]1O[C@@H](OCCc2ccc(O)cc2)[C@H](O)[C@@H](O)[C@@H]1O` (stereo in doubt) [Specnuezhenide] are 1% and 13%.
Turning to `C=C(C)[C@@H]1CC=C(CO)CC1` [Perillyl alcohol], the “Percentage of motility inhibition 0 h” value came out at 0% and the “Percentage of motility inhibition 24 h” value amounted to 6%.
As for `CCn1cc(C(=O)[O-])c(=O)c2ccc(C)nc21.[Na+]` [Nalidixic acid (sodium salt)], the “Percentage of motility inhibition 0 h” value is 0% and the “Percentage of motility inhibition 24 h” value came to 0%.
For `COc1cc2c(cc1O)C[C@@H]1NCCc3cc(OC)c(O)c-2c31` [Norisoboldine], the “Percentage of motility inhibition 0 h” value stood at 0% and the “Percentage of motility inhibition 24 h” value was 0%.
In the case of `CCN1CCN(C(=O)N[C@@H](C(=O)N[C@@H]2C(=O)N3[C@@H]2SC(C)(C)[C@@H]3C(=O)[O-])c2ccccc2)C(=O)C1=O.[Na+]` [Piperacillin (sodium)], the “Percentage of motility inhibition 0 h” value was found to be 31% and the “Percentage of motility inhibition 24 h” value was 2%.
Consider `O=C(O)[C@H]1O[C@@H](O[C@H]2[C@H](Oc3cc(O)c4c(=O)cc(-c5ccc(O)c(O)c5)oc4c3)O[C@H](C(=O)O)[C@@H](O)[C@@H]2O)[C@H](O)[C@@H](O)[C@@H]1O` [Luteolin 7‐diglucuronide], for which the “Percentage of motility inhibition 0 h” value was found to be 20% and the “Percentage of motility inhibition 24 h” value is listed as 7%.
The matching figures for `CC1(C)CC[C@]2(C(=O)O[C@@H]3O[C@H](CO)[C@@H](O)[C@H](O)[C@H]3O)[C@H](O)C[C@]3(C)C(=CC[C@@H]4[C@@]5(C)CC[C@H](O)C(C)(C)[C@@H]5CC[C@]43C)[C@@H]2C1` [Echinocystic acid 28-O-β-D-glucoside]: 36% and 41%.
With Bulleyaconitine A, the “Percentage of motility inhibition 0 h” value was determined as 26% and the “Percentage of motility inhibition 24 h” value stood at 26%.
`C[C@@H](CO[C@@H]1O[C@H](CO)[C@@H](O)[C@H](O)[C@H]1O)[C@@H]1CC[C@@]2(CC[C@]3(C)[C@H](CC[C@@H]4[C@@]5(C)CC[C@H](O[C@@H]6O[C@H](CO)[C@@H](O)[C@H](O)[C@H]6O[C@@H]6O[C@H](CO)[C@@H](O)[C@H](O)[C@H]6O)[C@@](C)(CO[C@@H]6O[C@H](CO)[C@@H](O)[C@H](O)[C@H]6O)[C@@H]5CC[C@]43C)[C@H]2O)CO1` [Hosenkoside K]: the “Percentage of motility inhibition 0 h” value is recorded as 10% and the “Percentage of motility inhibition 24 h” value is listed as 2%.
The corresponding values for `COc1ccc(CCNC(=O)/C=C/c2ccc(O)c(O)c2)cc1` [N‐Caffeoyl O‐methyltyramine] are 0% and 0%.
`C[C@@H]1O[C@@H](OC[C@H]2O[C@@H](Oc3c(-c4ccc(OCCO)c(OCCO)c4)oc4cc(OCCO)cc(O)c4c3=O)[C@H](O)[C@@H](O)[C@@H]2O)[C@H](O)[C@H](O)[C@H]1O` [Troxerutin]: the “Percentage of motility inhibition 0 h” value is 0% and 3%; the “Percentage of motility inhibition 24 h” value was 0% and 6%.
Turning to `CN1[C@@H](CC(=O)c2ccccc2)CCC[C@H]1CC(=O)c1ccccc1` [Lobelanine], the “Percentage of motility inhibition 0 h” value is 0% and the “Percentage of motility inhibition 24 h” value amounted to 5%.
On to `C/C=C/C=C/C=C/CC/C=C/C(=O)NCC(C)(C)O` [Hydroxy‐β‐sanshool], for which the “Percentage of motility inhibition 0 h” value was 46% and the “Percentage of motility inhibition 24 h” value was 10%.
Turning to `CO/N=C(\C(=O)N[C@@H]1C(=O)N2C(C(=O)O)=C(C[N+]3(C)CCCC3)CS[C@H]12)c1csc(N)n1.Cl.O.[Cl-]` [Cefepime (Dihydrochloride Monohydrate)], the “Percentage of motility inhibition 0 h” value stood at 7% and the “Percentage of motility inhibition 24 h” value amounted to 1%.
The matching figures for `O=C1CCC[C@@H]2[C@H]3CCCN4CCC[C@@H](CN12)[C@H]34` [Allomatrine]: 0% and 0%.
The matching figures for `CC(=O)O[C@@H]1C[C@@]23C[C@@]24CC[C@H](O[C@@H]2OC[C@@H](O)[C@H](O)[C@H]2O)C(C)(C)[C@@H]4CC[C@H]3[C@]2(C)C[C@@H]3O[C@@]4(C[C@@H](C)[C@@H]3[C@@]12C)OC[C@@]1(C)O[C@@H]41` [23-epi-26-Deoxyactein]: 0% and 5%.
As to `C=C1CC[C@@H]2[C@](C)(COC(=O)CCC(=O)[O-])[C@H](OC(=O)CCC(=O)O)CC[C@@]2(C)[C@@H]1/C=C/C1=CCOC1=O.[K+]` [Kalii Dehydrographolidi Succinas], the “Percentage of motility inhibition 0 h” value was determined as 5% and the “Percentage of motility inhibition 24 h” value stood at 5%.
Take `O=S(=O)([O-])O.c1c2c(cc3c1OCO3)-c1cc3ccc4c(c3c[n+]1CC2)OCO4` [Coptisine (Sulfate)]: the “Percentage of motility inhibition 0 h” value came to 0% and the “Percentage of motility inhibition 24 h” value is given as 9%.
The matching figures for `COC(=O)[C@@H]1[C@H]2C[C@H]3c4[nH]c5ccccc5c4CCN3C[C@@H]2CC[C@@H]1O.Cl` [Yohimbine (Hydrochloride)]: 24% and 0%.
The corresponding values for `CC(C)=CCC[C@](C)(O)[C@H]1CC[C@]2(C)[C@@H]1[C@H](O)C[C@@H]1[C@@]3(C)CC[C@H](O)C(C)(C)[C@@H]3[C@@H](O[C@@H]3O[C@H](CO)[C@@H](O)[C@H](O)[C@H]3O[C@@H]3OC[C@@H](O)[C@H](O)[C@H]3O)C[C@]12C` [Notoginsenoside R2] are 19% and 9%.
The matching figures for `CC(=O)O[C@@H]1[C@@H](O)[C@H](O[C@H]2CC[C@]34C[C@]35CC[C@]3(C)[C@@H]([C@@]6(C)CC[C@@H](C(C)(C)O)O6)[C@@H](O)C[C@@]3(C)[C@@H]5C[C@H](O[C@@H]3O[C@H](CO)[C@@H](O)[C@H](O)[C@H]3O)[C@H]4C2(C)C)OC[C@H]1O` [Isoastragaloside II]: 0% and 9%.
Regarding `CC1=COC(=O)[C@H]2[C@@H]1CC[C@@H]2C` [4aα,7α,7aα-Nepetalactone], the “Percentage of motility inhibition 0 h” value turned out to be 17% and the “Percentage of motility inhibition 24 h” value is reported as 16%.
On to `C[C@@H]1O[C@@H](OC[C@H]2O[C@@H](Oc3c(-c4ccc(O)c(O)c4)oc4cc(O)cc(O)c4c3=O)[C@H](O)[C@@H](O)[C@@H]2O)[C@H](O)[C@H](O)[C@H]1O.O.O.O` [Rutin (trihydrate)], for which the “Percentage of motility inhibition 0 h” value is recorded as 2% and the “Percentage of motility inhibition 24 h” value is listed as 9%.
The corresponding values for SN‐38 are 34% and 3%.
Regarding `CC(=O)O[C@H](C[C@@H](C)[C@H]1C(=O)[C@H](O)[C@@]2(C)[C@@H]3CC[C@H]4C(C)(C)[C@@H](O[C@@H]5OC[C@H](O)[C@H](O)[C@H]5O)CC[C@@]45C[C@@]35CC[C@]12C)[C@@H]1OC1(C)C` [Acetylshengmanol Arabinoside], the “Percentage of motility inhibition 0 h” value was 30% and the “Percentage of motility inhibition 24 h” value came out at 30%.
Consider `C/C1=C\CC/C(C)=C/CC(C)(C)/C=C/C1` [α-Humulene], for which the “Percentage of motility inhibition 0 h” value came out at 11% and the “Percentage of motility inhibition 24 h” value is recorded as 55%.
The matching figures for `CN1c2ccccc2C(=O)N2CCc3c([nH]c4ccccc34)[C@@H]21` (racemic) [(±)‐Evodiamine]: 0% and 12%.
